According to PubChem BioAssay (NCI):
Several values for one entry are separate records, joined by “and”; a condition that tells them apart may be missing. Equal values may be shown once.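 Briefly, cells in 96-well plates were exposed to five compound concentrations for 48 h, and endpoints were estimated by linear interpolation. The concentration for 50% growth inhibition is given as GI50. TGI is the concentration that stops growth completely.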

What was measured:
Assay in all cases: NCI tumour cell line growth inhibition, 48 h
SK-OV-3 ovarian = test system: SK-OV-3 ovarian
KM12 colon = test system: KM12 colon
DU-145 prostate = test system: DU-145 prostate
MOLT-4 leukemia = test system: MOLT-4 leukemia
SK-MEL-2 melanoma = test system: SK-MEL-2 melanoma
CAKI-1 renal = test system: CAKI-1 renal
BT-549 breast = test system: BT-549 breast
NCI-H460 lung = test system: NCI-H460 lung
LOX IMVI melanoma = test system: LOX IMVI melanoma
NCI-H522 lung = test system: NCI-H522 lung

Row | Compound | GI50 (SK-OV-3 ovarian) | TGI (SK-OV-3 ovarian) | GI50 (KM12 colon) | TGI (KM12 colon) [µM] | GI50 (DU-145 prostate) | TGI (DU-145 prostate) | GI50 (MOLT-4 leukemia) | TGI (MOLT-4 leukemia) [µM] | GI50 (SK-MEL-2 melanoma) | TGI (SK-MEL-2 melanoma) | GI50 (CAKI-1 renal) | TGI (CAKI-1 renal) | GI50 (BT-549 breast) | TGI (BT-549 breast) | GI50 (NCI-H460 lung) | TGI (NCI-H460 lung) | GI50 (LOX IMVI melanoma) | TGI (LOX IMVI melanoma) | GI50 (NCI-H522 lung) | TGI (NCI-H522 lung)
1 | O=C(Nc1ccc(O)c(NS(=O)(=O)c2ccc(F)cc2)c1)c1ccc(-c2ccccc2)cc1 | 18.8 µM | 44.2 µM | 10 µM | 23.3 | 11.7 µM | 26.3 µM | 2.58 µM | 11 | 15.1 µM | 46.2 µM | 5.65 µM | 32.6 µM | 4.6 µM | 20.2 µM | 3.85 µM | 15.9 µM | 6.18 µM | 21.1 µM | 2.27 µM | 8.7 µM
2 | O=[N+]([O-])c1ccc(NN=C2c3ccccc3Cc3ccccc32)c([N+](=O)[O-])c1 |  | > 100 µM |  | 79.9 |  | > 100 µM |  | > 100 |  | > 43.4 µM |  | > 100 µM |  | > 100 µM |  | > 100 µM |  | > 100 µM |  | 7.97 µM
3 | CS(=O)(=O)N(CC(=O)O)Cc1ccccc1 |  | > 100 µM |  | > 100 |  | > 100 µM |  | > 100 |  | > 100 µM |  | > 100 µM |  | > 100 µM |  | > 100 µM |  | > 100 µM |  | > 100 µM
4 | COc1cccc2cc(-c3nc(C4CCC(C(=O)O)CC4)n4ncnc(N)c34)[nH]c12 (configuration not stated) | 0.223 µM and 0.278 µM | 1.75 µM and 2.21 µM | 0.33 µM and 0.59 µM | > 100 | 1.22 µM and 1.63 µM | 24.3 µM and > 10 µM | 0.4 µM and 0.767 µM | > 40.8 | 0.108 µM and 0.347 µM | 0.633 µM and 2.23 µM | 0.33 µM and 0.326 µM | 2.79 µM and 3.99 µM | 0.0939 µM and 0.168 µM | 1.06 µM and 1.49 µM | 0.253 µM and 0.445 µM | 17.7 µM and > 10 µM | 0.368 µM and 0.825 µM | 4.85 µM and > 10 µM | 0.0712 µM and 0.209 µM | 1.92 µM and > 8.47 µM
5 | Cc1ccc(C)c(N2C(=O)C(=O)c3c(C)ccc(C)c32)c1 |  | > 100 µM |  | 66.1 |  | > 100 µM |  | 48.8 |  | 68.4 µM |  | 87.1 µM |  | 42.2 µM |  | > 100 µM |  | 31.2 µM |  | 38.6 µM
6 | COc1ccc2c(c1)c(-c1nc(-c3cn(C)c4ncccc34)cs1)cn2CCCCN1CCOCC1 | 4.22 µM | 15.2 µM | 1.42 µM | 3.09 | 1.71 µM | 5.05 µM | 0.951 µM | 2.8 | 2.05 µM | 4.29 µM | 1.39 µM | 2.89 µM | 2.3 µM | 10.7 µM | 1.19 µM | 2.91 µM | 1.32 µM | 2.68 µM | 1.77 µM | 3.81 µM
7 | CCCC(=O)Nc1ncnc2c1ncn2C1OC2COP(=O)(O)OC2C1OC(=O)CCC (configuration not stated) | > 1000 µM | > 1000 µM | > 1000 µM | > 1000 | > 1000 µM | > 1000 µM | > 1000 µM | > 1000 | > 1000 µM | > 1000 µM | > 1000 µM | > 1000 µM |  | > 1000 µM |  |  | > 1000 µM | > 1000 µM | > 1000 µM | > 1000 µM
